The results in this text go back to patent US7311743B2, “Biofiltration apparatus and method for reducing methyl bromide concentration in a volume of gas” (Energy Resource Institute, Inc., priority 2004, dated 2007).

In data set [1] the test system is methyl bromide-degrading bacteria. The experiment in a line: Methyl bromide removal in the biotrickling filter. From the text:
A biotrickling filter was constructed as schematically represented in FIG. 2. The apparatus included three packed bed sections filled with lava rock, perlite or polyurethane as packing materials. Other equipment included an air supply, a methyl bromide supply, recycle liquid circulation, a nutrient supply (as a complete mineral medium), and a pH control by automatic addition of NaOH. The biotrickling filter was usually operated at standard conditions as specified in Table 1.
Cultures of methyl bromide-degrading bacteria were obtained by inoculating or exposing the substrate component of the apparatus with a variety of natural sources or materials, such as soil and sediment. A continuous supply of a low concentration (about 0 to about 10 g/m^3) of methyl bromide was supplied to the apparatus. The first signs of methyl bromide removal were observed after about 6-12 days of operation of the apparatus. The methyl bromide elimination capacity seemed to reach a maximum value after about 35-40 days of operation. During operation, the pH in the recycle liquid declined, small amounts of bromide were produced in the recycle liquid, and the CO2 concentration in the outlet air increased.
The fate of methyl bromide in the biotrickling filter was determined by comparing the rate of methyl bromide removal with the rates of CO2 production, bromide ion production and NaOH consumption as expected from the biodegradation reaction stoichiometry. Biodegradation of methyl bromide and pH control occur according to the following reactions 2CH3Br+3O2→2HBr+2 CO2+2H2O Equation 3 HBr+NaOH→NaBr+H2O Equation 4
The effect of the liquid recycle or trickling rate was examined at the lower and higher end of the range of recycle rates commonly employed in biotrickling filters. Methyl bromide removal was the same at a trickling rates of 2.55 and 22.2 L/h, corresponding to superficial liquid velocities of 2.0 and 17.7 m/h, respectively (Table 2).
The maximum elimination capacity of methyl bromide in the biotrickling filter was determined by stepwise increasing the methyl bromide concentration. Depending on the inlet concentration, the following phases can be distinguished: […]

The nature of data set [2]: Air/organic phase partition coefficient of methyl bromide. It is filed as physicochemical. The settings on record: gas over liquid concentration. The procedure: If necessary, the air/organic phase partition coefficients of methyl bromide in these and other potential organic liquids may be determined by adding a known amount of an organic liquid and methyl bromide to a 250 mL flask with TEFLON-lined silicon septa. A gas headspace may be analyzed for methyl bromide by gas chromatography, and the partition of methyl bromide may be calculated. In certain embodiments, corn oil may be preferred since the air/corn oil partition coefficient for methyl bromide is 0.02, i.e., about ten times lower than with water. Based on calculations, a Henry coefficient of 0.005 may be ideal for load dampening. The organic phase should meet various requirements, such as a low vapor pressure, low toxicity, non-miscibility with water, and being non-biodegradable. Additional examples of liquids may include di-n-octylphtalate, di-n-nonylphtalate, polydimethylsiloxane, and silicone oil. Methyl bromide concentrations in the inlet and outlet air may be determined (continuously or semi-continuously) with a photoionization detector (PID) analyzer, for example. […] Potential carry over of aerosol to the outlet stream may be determined to evaluate whether a demister might be beneficial. For either the GAC or liquid absorption system, the results may be analyzed with mathematical model (see FIG. 19).

Molecules are shown by their SMILES.

In the case of `[Br-].[Na+]` [NaBr, sodium bromide], in data set [1] (recycle liquid (48 g/L)), the “NaBr concentration in the recycle liquid at which inhibition of methyl bromide removal was observed” value is no less than 0.47 M.
As to `CBr` [Methyl bromide], the Removal efficiency in data set [1] (gas flow cocurrent, EBRT = 94 s, inlet 3.042 g/m^3) was 63%; in data set [1] (gas flow countercurrent (standard operation), EBRT = 94 s, inlet 3.713 g/m^3), 70%; in data set [1] (low inlet concentrations increasing up to 3 g/m^3) it was “greater than 96%”; in data set [1] (superficial liquid velocity 2.0 m/h (standard operation), EBRT = 94 s, inlet 2.927 g/m^3), 89%; in data set [1] (superficial liquid velocity 17.7 m/h, EBRT = 94 s, inlet 2.927 g/m^3), 91%. In addition, the “Concentration at which a reduction of the elimination capacity (toxic effect on microorganisms) was observed” value in data set [1] (inlet air concentration (3300 ppm)) is on record as “greater than 13 g/m^3”. For the same compound, the “Air/corn oil partition coefficient” value in data set [2] is 0.02.
